Results: patent publication US20250197377A1, “NOVEL PHARMACEUTICAL SALTS AND POLYMORPHIC FORMS OF AN ERBB AND BTK INHIBITOR” (DIZAL (JIANGSU) PHARMACEUTICAL CO., LTD., priority 2021, published 2025)
Converted amounts (≈) assume the structure as drawn. “And” between values parts separate entries of the source, which are not always exact repeats. Identical values can stand only once.

How the values were obtained:
[1] = Solubility in organic solvents and water; format: physicochemical; details: r.t.
A431 = assay: In vitro cell based assay, anti-proliferation GI50, A431; details: EGFR Wildtype
HER2 A775_G776insYVMA = target: T1, HER2 A775_G776insYVMA (Homo sapiens, UniProt P04626, INS775YVMA); assay: In vitro cell based assay, PD IC50, 3T3_YVMA
T1 construct: expressed in transfected cells; host or cells: 3T3 (3T3_YVMA)

[2] = Milling study of Form B (grinding and jet milling); format: physicochemical
Description: Grinding and jet milling were carried out. About 10 mg Form B was added into mortar and grinded by pestle for 1 min and 2 min. Jet milling of Form B in 500 mg scale was performed. Samples before and after grinding and milling were analyzed by XRPD. • Instrument: Jet mill (Equipment number: PPD-OAJ-1) • Feeding speed: Manual • Feeding pressure: 0.3˜0.6 MPa • Milling One Pressure: 0.4˜0.8 MPa • Milling Two Pressure: 0.4˜0.8 MPa
Grinding and jet milling were carried out to test physical stability of Form B in the milling process. As shown in XRPD results of obtained solids after grinding (FIG. 25), jet milling (FIG. 24), and DSC profile after jet milling (FIG. 26), the crystallinity decreased after grinding, but the crystal form of Form B was unchanged after milling and grinding.

EGFR 19Del = target: T2, EGFR 19Del (Homo sapiens, UniProt P00533, DEL746-750); assay: In vitro cell based assay, PD IC50, PC-9
T2 construct: Form A and B in vitro cell based assay; endogenous in cells; host or cells: PC-9

NCI-H1975 = assay: In vitro cell based assay, anti-proliferation GI50, NCI-H1975; details: EGFR L858R/T790M
[3] = Water activity study of Form A and Form B (slurry, XRPD); format: physicochemical; details: 24~27° C. (before dry)
Description: To study the effects of water on the stability of Form A and Form B, slurry experiments in the systems with different water activity were carried out. Form A or Form B was suspended separately in different water activity systems (Table 4). […] Residual solids were filtered and then dried in the vacuum oven at 45° C. for 8-24 hours. Dry solids were characterized by XRPD.

EGFR H773_V774insNPH = target: T3, EGFR H773_V774insNPH (Homo sapiens, UniProt P00533, INS773NPH); assay: In vitro cell based assay, PD IC50, Ba/F3_NPH
T3 construct: expressed in transfected cells; host or cells: Ba/F3 (Ba/F3_NPH)

[4] = Dynamic moisture sorption analysis (DVS); format: physicochemical
Description: DVS was determined using DVS Advantage-1 or Intrinsic (SMS, UK). The sample was tested at a targeted RH of 10 to 90% full cycle in step mode. The analysis was performed in 10% RH increments. Equilibrium:60 min RH (%) measurement points: First cycle: 0, 10, 20, 30, 40, 50, 60, 70, 80, 90. Second cycle: 90, 80, 70, 60, 50, 40, 30, 20, 10, 0.

[5] = Solubility in bio-relevant media; format: physicochemical; details: for pH value at 24 h: solubility sample at 24 h
[6] = PK study of Form A and Form B in Dog; format: in vivo; details: 10 mg/kg
[7] = Form A and Form B inter-conversion study (competitive slurry, XRPD); format: physicochemical
Description: Competitive slurry experiments were conducted to evaluate the relative stability of Form A and Form B. Inter-conversion study was performed at room temperature and 50° C. using single and binary solvents listed in the Table 1 below. About 80 mg (100 mg for 50° C.) of Form A and Form B (1:1, w/w) was weighed into sample vials (8 mL) and then 3 mL (2 mL for 50° C.) of solvents were added to each vial. The obtained suspensions were kept stirring for 7 days at room temperature and 50° C., then filtered at specified time. The wet and dried solids were analyzed by XRPD (dried in vacuum oven at 45° C.).
Form B was dominant in tested solvent systems with water activity below 0.15 at room temperature (24˜27° C.). […] Pure Form A and Form B were stable during drying process (50° C., vacuum) for at least 2 days.

Ba/F3_NPH = assay: In vitro cell based assay, anti-proliferation GI50, Ba/F3_NPH; details: EGFR H773_V774insNPH
EGFR Wildtype = target: T4, EGFR Wildtype (Homo sapiens, UniProt P00533); assay: In vitro cell based assay, PD IC50, A431
T4 construct: Form A and B in vitro cell based assay; endogenous in cells; host or cells: A431

[8] = Stability in storage for Form B (XRPD, DSC); format: physicochemical; details: stored at 2-8° C. for at least 20 d
3T3_YVMA = assay: In vitro cell based assay, anti-proliferation GI50, 3T3_YVMA; details: HER2 A775_G776insYVMA
PC-9 = assay: In vitro cell based assay, anti-proliferation GI50, PC-9; details: EGFR 19Del
EGFR L858R/T790M = target: T5, EGFR L858R/T790M (Homo sapiens, UniProt P00533, L858R/T790M); assay: In vitro cell based assay, PD IC50, NCI-H1975
T5 construct: Form A and B in vitro cell based assay; endogenous in cells; host or cells: NCI-H1975

[9] = PK study of Form A and Form B in Rat; format: in vivo

T4 sequence (P00533 25-1210): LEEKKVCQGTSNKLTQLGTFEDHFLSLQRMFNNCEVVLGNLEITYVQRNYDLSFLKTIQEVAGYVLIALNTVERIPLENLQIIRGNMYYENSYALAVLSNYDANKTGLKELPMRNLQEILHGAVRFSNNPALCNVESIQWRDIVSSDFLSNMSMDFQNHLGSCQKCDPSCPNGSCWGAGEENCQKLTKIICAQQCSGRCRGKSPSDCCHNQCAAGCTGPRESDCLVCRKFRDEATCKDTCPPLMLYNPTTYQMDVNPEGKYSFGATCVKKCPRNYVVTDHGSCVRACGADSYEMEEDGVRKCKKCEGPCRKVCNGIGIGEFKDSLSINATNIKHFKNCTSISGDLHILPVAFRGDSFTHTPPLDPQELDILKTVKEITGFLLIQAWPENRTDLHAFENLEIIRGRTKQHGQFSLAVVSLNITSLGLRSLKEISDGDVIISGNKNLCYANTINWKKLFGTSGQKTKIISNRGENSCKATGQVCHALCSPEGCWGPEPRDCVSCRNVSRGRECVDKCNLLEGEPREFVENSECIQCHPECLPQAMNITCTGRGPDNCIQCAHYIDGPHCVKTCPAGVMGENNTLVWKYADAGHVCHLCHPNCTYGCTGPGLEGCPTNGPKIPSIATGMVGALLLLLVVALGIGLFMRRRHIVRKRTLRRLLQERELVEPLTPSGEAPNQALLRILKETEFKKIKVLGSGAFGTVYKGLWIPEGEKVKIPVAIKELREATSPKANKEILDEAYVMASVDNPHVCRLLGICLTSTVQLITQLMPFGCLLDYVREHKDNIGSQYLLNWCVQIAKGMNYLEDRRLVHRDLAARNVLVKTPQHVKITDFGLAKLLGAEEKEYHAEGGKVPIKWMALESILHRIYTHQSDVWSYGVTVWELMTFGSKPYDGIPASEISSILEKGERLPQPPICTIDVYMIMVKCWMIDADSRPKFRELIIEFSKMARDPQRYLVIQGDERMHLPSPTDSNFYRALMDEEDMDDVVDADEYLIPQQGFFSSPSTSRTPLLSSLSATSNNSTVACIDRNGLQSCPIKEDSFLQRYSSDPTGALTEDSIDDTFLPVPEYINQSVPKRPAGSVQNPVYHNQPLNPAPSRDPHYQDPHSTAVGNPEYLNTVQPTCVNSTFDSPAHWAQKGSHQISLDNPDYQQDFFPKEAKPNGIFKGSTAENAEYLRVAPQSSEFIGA
T5 sequence (P00533 25-1210 T790M/L858R): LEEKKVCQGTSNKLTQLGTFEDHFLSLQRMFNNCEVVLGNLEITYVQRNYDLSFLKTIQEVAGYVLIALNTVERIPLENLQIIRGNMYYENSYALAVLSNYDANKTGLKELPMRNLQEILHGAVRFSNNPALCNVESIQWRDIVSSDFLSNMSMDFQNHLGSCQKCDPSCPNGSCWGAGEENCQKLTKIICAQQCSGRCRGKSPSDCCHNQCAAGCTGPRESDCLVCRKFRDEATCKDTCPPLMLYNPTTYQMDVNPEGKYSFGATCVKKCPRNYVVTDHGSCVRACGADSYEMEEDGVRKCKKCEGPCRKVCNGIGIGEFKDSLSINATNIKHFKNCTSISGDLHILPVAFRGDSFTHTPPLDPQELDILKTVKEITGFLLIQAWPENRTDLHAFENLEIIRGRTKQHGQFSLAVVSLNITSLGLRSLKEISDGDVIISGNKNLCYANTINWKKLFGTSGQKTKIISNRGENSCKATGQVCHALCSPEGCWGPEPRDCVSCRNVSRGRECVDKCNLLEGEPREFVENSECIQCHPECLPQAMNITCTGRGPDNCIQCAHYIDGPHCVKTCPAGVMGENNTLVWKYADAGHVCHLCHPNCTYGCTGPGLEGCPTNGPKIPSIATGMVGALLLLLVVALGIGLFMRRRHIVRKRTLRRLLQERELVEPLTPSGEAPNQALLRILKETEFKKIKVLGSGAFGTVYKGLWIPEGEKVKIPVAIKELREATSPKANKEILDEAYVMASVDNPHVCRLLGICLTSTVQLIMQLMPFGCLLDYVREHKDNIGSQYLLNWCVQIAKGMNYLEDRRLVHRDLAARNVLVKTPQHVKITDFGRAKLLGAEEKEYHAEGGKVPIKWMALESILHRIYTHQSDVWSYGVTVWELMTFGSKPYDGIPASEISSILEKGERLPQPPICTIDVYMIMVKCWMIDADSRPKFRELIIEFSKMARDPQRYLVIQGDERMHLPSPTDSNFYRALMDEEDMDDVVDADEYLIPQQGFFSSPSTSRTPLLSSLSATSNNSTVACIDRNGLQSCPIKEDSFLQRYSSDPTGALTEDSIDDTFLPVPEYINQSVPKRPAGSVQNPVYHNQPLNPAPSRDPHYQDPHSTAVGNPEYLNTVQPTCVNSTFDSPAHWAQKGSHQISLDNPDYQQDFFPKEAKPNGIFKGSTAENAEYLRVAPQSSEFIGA
T2 sequence (P00533 with tags, fused parts or gaps DEL746-750): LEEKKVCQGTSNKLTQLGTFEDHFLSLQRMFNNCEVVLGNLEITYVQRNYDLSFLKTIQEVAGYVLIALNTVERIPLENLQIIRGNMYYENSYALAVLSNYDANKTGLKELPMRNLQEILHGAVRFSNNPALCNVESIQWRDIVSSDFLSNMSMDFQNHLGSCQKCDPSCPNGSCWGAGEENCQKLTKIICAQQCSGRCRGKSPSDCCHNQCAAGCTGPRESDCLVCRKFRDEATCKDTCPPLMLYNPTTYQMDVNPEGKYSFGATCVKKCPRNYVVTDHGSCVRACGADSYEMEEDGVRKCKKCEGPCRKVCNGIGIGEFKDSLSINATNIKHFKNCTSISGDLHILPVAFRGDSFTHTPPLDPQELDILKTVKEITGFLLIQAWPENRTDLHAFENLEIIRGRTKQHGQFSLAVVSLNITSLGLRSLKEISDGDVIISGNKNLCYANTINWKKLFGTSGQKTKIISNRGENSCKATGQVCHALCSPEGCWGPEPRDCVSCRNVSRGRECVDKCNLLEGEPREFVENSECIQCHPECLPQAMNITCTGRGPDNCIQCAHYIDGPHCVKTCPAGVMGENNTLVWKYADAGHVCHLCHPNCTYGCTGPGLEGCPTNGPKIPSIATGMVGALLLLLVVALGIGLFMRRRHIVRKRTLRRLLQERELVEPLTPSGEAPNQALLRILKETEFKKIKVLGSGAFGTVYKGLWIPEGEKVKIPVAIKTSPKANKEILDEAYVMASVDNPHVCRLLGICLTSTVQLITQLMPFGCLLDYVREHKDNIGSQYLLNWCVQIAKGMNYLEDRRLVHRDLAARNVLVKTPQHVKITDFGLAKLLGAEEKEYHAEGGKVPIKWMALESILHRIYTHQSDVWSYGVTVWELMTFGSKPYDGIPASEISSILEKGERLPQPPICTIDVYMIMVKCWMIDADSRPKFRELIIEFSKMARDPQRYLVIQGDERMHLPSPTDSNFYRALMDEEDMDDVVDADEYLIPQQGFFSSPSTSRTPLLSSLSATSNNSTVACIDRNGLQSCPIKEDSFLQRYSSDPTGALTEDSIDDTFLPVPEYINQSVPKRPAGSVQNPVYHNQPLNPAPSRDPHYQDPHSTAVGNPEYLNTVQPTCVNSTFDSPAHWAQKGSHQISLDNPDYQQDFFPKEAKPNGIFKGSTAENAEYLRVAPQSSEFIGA
T3 sequence (P00533 with tags, fused parts or gaps INS773NPH): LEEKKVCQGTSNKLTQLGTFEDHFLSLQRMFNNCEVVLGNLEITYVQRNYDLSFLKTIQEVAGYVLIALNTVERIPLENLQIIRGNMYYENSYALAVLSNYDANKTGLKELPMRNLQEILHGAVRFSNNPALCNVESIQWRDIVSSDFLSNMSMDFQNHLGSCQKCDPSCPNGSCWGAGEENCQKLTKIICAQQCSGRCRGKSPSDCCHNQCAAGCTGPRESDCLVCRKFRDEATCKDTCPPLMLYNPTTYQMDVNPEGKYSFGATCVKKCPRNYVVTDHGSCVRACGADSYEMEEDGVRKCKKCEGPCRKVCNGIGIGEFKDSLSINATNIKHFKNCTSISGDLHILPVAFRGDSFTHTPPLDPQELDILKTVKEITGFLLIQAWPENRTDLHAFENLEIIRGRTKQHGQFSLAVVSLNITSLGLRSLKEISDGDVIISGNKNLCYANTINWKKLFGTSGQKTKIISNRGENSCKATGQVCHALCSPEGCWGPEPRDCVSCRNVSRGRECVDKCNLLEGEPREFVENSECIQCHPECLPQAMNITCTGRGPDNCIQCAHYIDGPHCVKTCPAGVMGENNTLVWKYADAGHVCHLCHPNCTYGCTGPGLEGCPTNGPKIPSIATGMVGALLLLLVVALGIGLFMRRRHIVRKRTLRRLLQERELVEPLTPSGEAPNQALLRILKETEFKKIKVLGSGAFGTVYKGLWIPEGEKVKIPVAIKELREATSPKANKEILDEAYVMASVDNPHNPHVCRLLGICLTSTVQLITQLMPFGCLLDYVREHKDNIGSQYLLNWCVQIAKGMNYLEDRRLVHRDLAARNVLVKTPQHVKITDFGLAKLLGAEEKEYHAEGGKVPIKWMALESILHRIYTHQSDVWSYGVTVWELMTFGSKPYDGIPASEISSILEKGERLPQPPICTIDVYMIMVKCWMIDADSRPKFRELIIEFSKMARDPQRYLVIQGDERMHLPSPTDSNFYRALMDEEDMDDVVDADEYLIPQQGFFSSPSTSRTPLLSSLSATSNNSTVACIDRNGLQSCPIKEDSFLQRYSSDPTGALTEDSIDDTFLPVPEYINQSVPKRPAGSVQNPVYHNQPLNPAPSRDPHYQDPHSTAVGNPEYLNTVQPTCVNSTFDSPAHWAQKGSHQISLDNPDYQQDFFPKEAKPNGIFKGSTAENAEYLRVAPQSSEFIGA

## C=CC(=O)Nc1cc(Nc2nccc(Nc3cc(Cl)c(F)cc3C(C)(C)O)n2)c(OC)cc1N1CC[C@@H](N(C)C)C1 [Form B, (R)-N-(5-((4-((5-chloro-4-fluoro-2-(2-hydroxypropan-2-yl)phenyl)amino)pyrimidin-2-yl)amino)-2-(3-(dimethylamino)pyrrolidin-1-yl)-4-methoxyphenyl)acrylamide]
[1]; Acetone
  Solubility: S < 5.88 mg/ml
[1]; Acetonitrile
  Solubility: S < 0.97 mg/ml
[1]; Ethyl acetate
  Solubility: S < 1.06 mg/ml
[1]; Isopropanol
  Solubility: S ~ 4.677 mg/ml
[1]; MTBE
  Solubility: S < 1.57 mg/ml
[1]; MeOH
  Solubility: 24.00 < S mg/ml
[1]; THF
  Solubility: 12.70 < S mg/ml
[1]; water
  Solubility: S < 2.73 mg/ml
A431
  GI50: 45.9 nM
HER2 A775_G776insYVMA
  IC50: 3.26 nM
[2]; grinding
  Crystallinity after grinding (XRPD): decreased
[2]; grinding 1 min and 2 min, jet milling
  Crystal form after milling and grinding (XRPD, DSC): unchanged
EGFR 19Del
  IC50: 2.29 nM
NCI-H1975
  GI50: 1.45 nM
[3]; 0% water/acetone, water activity 0, 1 d
  XRPD results of slurry in different water activity solvent: Form B
[3]; 0% water/acetone, water activity 0, 3 d
  XRPD results of slurry in different water activity solvent: Form B
[3]; 0% water/acetone, water activity 0, 7 d
  XRPD results of slurry in different water activity solvent: Form B
[3]; 3% water/acetone, water activity 0.312, 3 d
  XRPD results of slurry in different water activity solvent: Form B
[3]; 3% water/acetone, water activity 0.312, 7 d
  XRPD results of slurry in different water activity solvent: Form B
[3]; 30% water/acetone, water activity 0.747, 1 d
  XRPD results of slurry in different water activity solvent: Form B
[3]; 30% water/acetone, water activity 0.747, 3 d
  XRPD results of slurry in different water activity solvent: Form B
[3]; 30% water/acetone, water activity 0.747, 7 d
  XRPD results of slurry in different water activity solvent: Form B
[3]; water, 7 d
  XRPD results of slurry in different water activity solvent: Form B
EGFR H773_V774insNPH
  IC50: 35.2 nM
[4]
  DVS (ΔW %, 80% RH): 0.04%
[5]; FaSSIF
  solubility at 0.5 h: 150 µg/mL (≈ 257 µM)
  pH value at 24 h: 6.43
[5]; FaSSIF, 2 h
  solubility at 2 h: 160 µg/mL (≈ 274 µM)
[5]; FaSSIF, 24 h
  solubility at 24 h: 240 µg/mL (≈ 411 µM)
[5]; FeSSIF
  solubility at 0.5 h: 3180 µg/mL (≈ 5440 µM)
  pH value at 24 h: 5.50
[5]; FeSSIF, 2 h
  Solubility: 2290 µg/mL (≈ 3920 µM)
[5]; FeSSIF, 24 h
  solubility at 24 h: 11200 µg/mL (≈ 19200 µM)
[5]; SGF, simulated gastric fluid
  solubility at 0.5 h: 23500 µg/mL (≈ 40300 µM)
[5]; SGF, simulated gastric fluid, 2 h
  solubility at 2 h: 24200 µg/mL (≈ 41400 µM)
[5]; SGF, simulated gastric fluid, 24 h
  solubility at 24 h: 25800 µg/mL (≈ 44100 µM)
[5]; SGF
  pH value at 24 h: 5.15
[5]; SIF, fassgf or other biorelevant
  solubility at 0.5 h: 18 µg/mL (≈ 30.8 µM)
[5]; SIF, fassgf or other biorelevant, 2 h
  solubility at 2 h: 25 µg/mL (≈ 42.8 µM)
[5]; SIF, 24 h
  Solubility: 520 µg/mL (≈ 890 µM)
[5]; SIF
  pH value at 24 h: 6.67
[6]; Female (individual animals)
  AUC0-24 h: 3.14 hr*μM/(mg/kg) and 3.75 hr*μM/(mg/kg)
[6]; Male (individual animals)
  AUC0-24 h: 2.88 hr*μM/(mg/kg) and 5.29 hr*μM/(mg/kg)
[7]; 50° C., vacuum, at least 2 days
  Stability of pure form during drying process: stable
[7]; 50° C., all the tested solvent systems except pure water
  Relative stability of Form A and Form B in competitive slurry: more stable than Form A
[7]; tested solvent systems with water activity below 0.15, room temperature (24~27° C.)
  Relative stability of Form A and Form B in competitive slurry: dominant
Ba/F3_NPH
  GI50: 66.3 nM
EGFR Wildtype
  IC50: 54.1 nM
[8]
  Form change after storage (XRPD, DSC): no form change observed
3T3_YVMA
  GI50: 44.5 nM
PC-9
  GI50: 4.23 nM
EGFR L858R/T790M
  IC50: 2.07 nM
[9]; 25 mg/kg
  Mean AUC0~48: 2678 ng·h/mL
  Mean Cmax: 299 ng/mL
  Mean t1/2: 4.1 h
  Median Tmax: 8.0 h
[9]; 75 mg/kg
  Mean AUC0~48: 8433 ng·h/mL
  Mean Cmax: 672 ng/mL
  Mean t1/2: 5.8 h
  Median Tmax: 4.0 h
